Holding throughout (assay): relative viability (nuclei count vs DMSO), 5 days (fraction); higher = more cells survive
Compound in the assay “Cediranib + Tozasertib”: COc1cc2c(Oc3ccc4[nH]c(C)cc4c3F)ncnc2cc1OCCCN1CCCC1 [Cediranib] + Cc1cc(Nc2cc(N3CCN(C)CC3)nc(Sc3ccc(NC(=O)C4CC4)cc3)n2)n[nH]1 [Tozasertib] (partner 0.1 µM)
A digest of the protocol:
(§1)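 Nuclei were stained with Hoechst during a one-step fixation (final 0.05% Triton X-100, 1% formaldehyde, 1 ug/ml Hoechst) carried out 5 days after dosing, then counted on 4× images. The cells, lung cancer lines in 1536-well plates, had been dosed by pin tool the day after seeding with one drug alone or a fixed anchor-drug dose plus five library-drug doses (not always all listed) in √10 steps. Relative viability is the nuclei count in treated wells divided by that in vehicle wells, and each value is the median of duplicate plates.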

Compound in the assay “Cediranib + Dasatinib”: COc1cc2c(Oc3ccc4[nH]c(C)cc4c3F)ncnc2cc1OCCCN1CCCC1 [Cediranib] + Cc1nc(Nc2ncc(C(=O)Nc3c(C)cccc3Cl)s2)cc(N2CCN(CCO)CC2)n1 [Dasatinib] (partner 0.075 µM)
In short, it runs like this:
as §1

Compound in the assay “Decitabine + Trametinib”: Nc1ncn([C@H]2C[C@H](O)[C@@H](CO)O2)c(=O)n1 [Decitabine] + CC(=O)Nc1cccc(-n2c(=O)n(C3CC3)c(=O)c3c(Nc4ccc(I)cc4F)n(C)c(=O)c(C)c32)c1 [Trametinib] (partner 0.02 µM)
In short, it runs like this:
as §1

Compound in the assay “Cediranib + Trametinib”: COc1cc2c(Oc3ccc4[nH]c(C)cc4c3F)ncnc2cc1OCCCN1CCCC1 [Cediranib] + CC(=O)Nc1cccc(-n2c(=O)n(C3CC3)c(=O)c3c(Nc4ccc(I)cc4F)n(C)c(=O)c(C)c32)c1 [Trametinib] (partner 0.02 µM)
In short, it runs like this:
as §1

Take NCI-H520: the relative viability with Cediranib + Tozasertib (first compound 0.04 µM) was 0.57; in the assay with Cediranib + Tozasertib (first compound 0.1265 µM), 0.35; with Cediranib + Tozasertib (first compound 0.4 µM), 0.543; with Cediranib + Tozasertib (first compound 4 µM) it was 0.426; in the assay with Cediranib + Dasatinib (first compound 0.04 µM), 0.264; with Cediranib + Dasatinib (first compound 0.1265 µM) it was 0.238. Further, the relative viability with Cediranib + Dasatinib (first compound 0.4 µM) worked out at 0.162; with Cediranib + Dasatinib (first compound 1.265 µM), 0.155; with Cediranib + Dasatinib (first compound 4 µM), 0.174; with Decitabine + Trametinib (first compound 0.04 µM) it was 0.529; with Decitabine + Trametinib (first compound 0.1265 µM), 0.349; with Decitabine + Trametinib (first compound 0.4 µM), 0.424. Moreover, the relative viability in the assay with Decitabine + Trametinib (first compound 1.265 µM) is 0.307; in the assay with Decitabine + Trametinib (first compound 4 µM), 0.266; with Cediranib + Trametinib (first compound 0.04 µM), 0.783; with Cediranib + Trametinib (first compound 0.1265 µM), 0.435; with Cediranib + Trametinib (first compound 0.4 µM), 0.54; with Cediranib + Trametinib (first compound 1.265 µM) it was 0.483. The relative viability with Cediranib + Trametinib (first compound 4 µM) worked out at 0.521.
For NCI-H522, the relative viability amounted to 0.687 in the assay with Cediranib + Tozasertib (first compound 0.04 µM); 0.465 in the assay with Cediranib + Tozasertib (first compound 0.1265 µM); 0.541 in the assay with Cediranib + Tozasertib (first compound 0.4 µM); 0.535 in the assay with Cediranib + Tozasertib (first compound 1.265 µM); 0.51 with Cediranib + Tozasertib (first compound 4 µM); 0.827 in the assay with Cediranib + Dasatinib (first compound 0.04 µM). In addition, the relative viability stood at 0.77 with Cediranib + Dasatinib (first compound 0.1265 µM); 0.85 with Cediranib + Dasatinib (first compound 0.4 µM); 0.965 in the assay with Cediranib + Dasatinib (first compound 1.265 µM); 0.811 in the assay with Cediranib + Dasatinib (first compound 4 µM); 0.718 in the assay with Decitabine + Trametinib (first compound 0.04 µM); 0.714 with Decitabine + Trametinib (first compound 0.1265 µM). The relative viability came out at 0.547 with Decitabine + Trametinib (first compound 0.4 µM); 0.537 with Decitabine + Trametinib (first compound 1.265 µM); 0.513 with Decitabine + Trametinib (first compound 4 µM); 0.785 with Cediranib + Trametinib (first compound 0.04 µM); 0.675 in the assay with Cediranib + Trametinib (first compound 0.1265 µM); 0.755 with Cediranib + Trametinib (first compound 0.4 µM). Moreover, the relative viability worked out at 0.864 with Cediranib + Trametinib (first compound 1.265 µM) and 0.756 in the assay with Cediranib + Trametinib (first compound 4 µM).
For the cell line NCI-H1563, the relative viability with Cediranib + Dasatinib (first compound 0.04 µM) amounted to 0.494; with Cediranib + Dasatinib (first compound 0.1265 µM) it was 0.897; with Cediranib + Dasatinib (first compound 0.4 µM), 0.498; in the assay with Cediranib + Dasatinib (first compound 1.265 µM), 0.513; with Cediranib + Dasatinib (first compound 4 µM), 0.492.
NCI-H1623: the relative viability with Cediranib + Tozasertib (first compound 0.04 µM) was 0.453; with Cediranib + Tozasertib (first compound 0.4 µM), 0.427; with Cediranib + Tozasertib (first compound 1.265 µM), 0.469; with Cediranib + Tozasertib (first compound 4 µM), 0.43; with Cediranib + Dasatinib (first compound 0.04 µM), 0.618; with Cediranib + Dasatinib (first compound 0.4 µM), 0.523. For the same cell line, the results for the relative viability in the assay with Cediranib + Dasatinib (first compound 1.265 µM) and with Cediranib + Dasatinib (first compound 4 µM) were 0.463 and 0.536, respectively.
In the case of NCI-H1648, the relative viability was 0.55 in the assay with Cediranib + Tozasertib (first compound 0.04 µM); 0.449 with Cediranib + Tozasertib (first compound 0.4 µM); 0.502 with Cediranib + Tozasertib (first compound 1.265 µM); 0.442 in the assay with Cediranib + Tozasertib (first compound 4 µM); 0.442 in the assay with Decitabine + Trametinib (first compound 0.04 µM); 0.462 with Decitabine + Trametinib (first compound 0.1265 µM). The relative viability is 0.452 in the assay with Decitabine + Trametinib (first compound 0.4 µM); 0.379 in the assay with Decitabine + Trametinib (first compound 1.265 µM); 0.355 with Decitabine + Trametinib (first compound 4 µM); 0.442 in the assay with Cediranib + Trametinib (first compound 0.04 µM); 0.499 in the assay with Cediranib + Trametinib (first compound 0.1265 µM); 0.539 with Cediranib + Trametinib (first compound 0.4 µM). For the same cell line, the relative viability in the assay with Cediranib + Trametinib (first compound 1.265 µM) worked out at 0.462; with Cediranib + Trametinib (first compound 4 µM), 0.495.
Take NCI-H1792: the relative viability with Cediranib + Dasatinib (first compound 0.04 µM) came out at 0.823; in the assay with Cediranib + Dasatinib (first compound 0.1265 µM) it was 0.872; in the assay with Cediranib + Dasatinib (first compound 0.4 µM), 0.557; in the assay with Cediranib + Dasatinib (first compound 1.265 µM), 0.923; in the assay with Cediranib + Dasatinib (first compound 4 µM), 0.957; with Decitabine + Trametinib (first compound 0.04 µM), 0.432. Also, the relative viability in the assay with Decitabine + Trametinib (first compound 0.1265 µM) was 0.359; in the assay with Decitabine + Trametinib (first compound 0.4 µM) it was 0.477; with Decitabine + Trametinib (first compound 1.265 µM), 0.257; with Decitabine + Trametinib (first compound 4 µM), 0.193; with Cediranib + Trametinib (first compound 0.1265 µM), 0.407; in the assay with Cediranib + Trametinib (first compound 0.4 µM), 0.375. For the same cell line, the values for the relative viability with Cediranib + Trametinib (first compound 1.265 µM) and in the assay with Cediranib + Trametinib (first compound 4 µM) were 0.521 and 0.458, respectively.
